Data reported in patent US8853258B2, “C-linked hydroxamic acid derivatives useful as antibacterial agents” (Pfizer Inc., priority 2009, dated 2014).
≈ marks a conversion by molar mass, not a printed value. Read-outs that look alike come from different tables or passages of the source.

How the values were obtained:
Type in all cases: cell-based
[1] = tested on: Klebsiella pneumoniae: Ciprofloxacin-resistant isolate, ESBL, clinical isolate (KP-3700); assay: MIC determination (CLSI), KP-3700
Procedure: (§1) The in vitro antibacterial activity of compounds described in the Examples was evaluated by minimum inhibitory concentration (MIC) testing according to Clinical and Laboratory Standards Institute (CLSI, formerly NCCLS) guidelines. See: Clinical and Laboratory Standards Institute. Methods for Dilution Antimicrobial Susceptibility Tests for Bacteria that Grow Aerobically; Approved Standard-Seventh Edition. CLSI document M7-A7 [ISBN 1-56238-587-9]. Clinical and Laboratory Standards Institute, 940 West Valley Road, Suite 1400, Wayne, Pa. 19087-1898 USA, 2006; also Clinical and Laboratory Standards Institute. Performance Standards for Antimicrobial Susceptibility Testing; Eighteenth Informational Supplement. CLSI document M100-S18 [ISBN1-56238-653-0]. Clinical and Laboratory Standards Institute.
(§2) The following bacterial strains were used in these MIC determinations:
4) Klebsiella pneumoniae: Ciprofloxacin-resistant isolate, expresses extended-spectrum beta-lactamases (ESBL), clinical isolate, labeled as KP-3700 in Tables 1, 2, and 3.

[2] = tested on: Escherichia coli EC-1: VOGEL, mouse virulent; assay: MIC determination (CLSI), EC-1; conditions: for MIC: Escherichia coli
Procedure: as §1, §2
3) Escherichia coli EC-1: VOGEL, mouse virulent labeled as EC-1 in Tables 1, 2 and 3;

[3] = tested on: Acinetobacter baumanii/haemolyticus: Multidrug-resistant clinical isolate (AB-3167); assay: MIC determination (CLSI), AB-3167; conditions: for MIC: Acinetobacter baumannii
Procedure: as §1, §2
2) Acinetobacter baumanii/haemolyticus: Multidrug-resistant clinical isolate labeled as AB-3167 in Tables 1, 2 and 3;

[4] = tested on: Pseudomonas aeruginosa UI-18: Wild-type (PA-7); assay: MIC determination (CLSI), PA-7; conditions: for MIC: Pseudomonas aeruginosa
Procedure: as §1, §2
1) Pseudomonas aeruginosa UI-18: Wild-type, labeled as PA-7 in Tables 1, 2 and 3;

[5] = Escherichia coli EC-1 VOGEL, mouse virulent
[6] = Acinetobacter baumanii/haemolyticus multidrug-resistant clinical isolate AB-3167
[7] = Pseudomonas aeruginosa UI-18 wild-type PA-7
[8] = Table 1, MIC, read-out: AB-3167 (MIC)
[9] = Table 1, MIC, read-out: PA-7 (MIC)

Row | SMILES | KP-3700 MIC [1] | EC-1 MIC [2, 5] | AB-3167 MIC [3, 6] | PA-7 MIC [4, 7] | other results
1 | COc1cc(O)ccc1-c1ccc(CCC(C)(C(=O)NO)S(C)(=O)=O)cc1 (stereo not drawn) [Example 141] | ≧64 mg/L | ≧64 mg/L | ≧64 mg/L | 32 µg/mL | 
2 | Cc1cc(C)cc(-c2ccc(CCC(C)(C(=O)NO)S(C)(=O)=O)cc2)c1 (racemic) [Example 52] | 4 µg/mL | 2 µg/mL | 8 µg/mL | 2 µg/mL | 
3 | CC(CCc1ccc(-c2cnc(C#N)cn2)cc1)(C(=O)NO)S(C)(=O)=O (stereo not drawn) [Example 130] | ≧64 mg/L | 16 µg/mL | ≧64 mg/L | 16 µg/mL | 
4 | CC(CCc1ccc(-c2ccc(C#N)c(F)c2)cc1)(C(=O)NO)S(C)(=O)=O (stereo not drawn) [Example 45] | 4 µg/mL | 0.5 µg/mL | ≧64 mg/L | 1 µg/mL | 
5 | CNS(=O)(=O)c1ccc(-c2ccc(CCC(C)(C(=O)NO)S(C)(=O)=O)cc2)cc1 (racemic) [Example 68] | 32 µg/mL | 32 µg/mL | ≧64 mg/L | 4 µg/mL | 
6 | CCC(c1ccccc1)c1noc(COc2ccc(CCC(C)(C(=O)NO)S(C)(=O)=O)cc2)n1 (stereo not drawn) [Example 240, N-hydroxy-2-methyl-2-(methylsulfonyl)-4-(4-{[3-(1-phenylpropyl)-1,2,4-oxadiazol-5-yl]methoxy}phenyl)butanamide] | ≧64 mg/L |  |  |  | MIC ([2]; read-out: EC-1 MIC): 32 µg/mL (≈ 65.6 µM); MIC ([3]; Table 3, read-out: AB-3167 MIC): ≥ 64 µg/mL; MIC ([4]; Table 3, read-out: PA-7 MIC): ≥ 64 µg/mL
7 | CC(CCc1ccc(-c2ccc(C(N)=O)cc2)cc1)(C(=O)NO)S(C)(=O)=O (stereo not drawn) [Example 96] | ≧64 mg/L | ≧64 mg/L | ≧64 mg/L | 8 µg/mL | 
8 | CS(=O)(=O)C(CCc1ccc(-c2ccccc2)cc1)C(=O)NO (stereo not drawn) [Example 36] | 16 µg/mL | 16 µg/mL | 32 µg/mL | 2 µg/mL | 
9 | COc1ccc(-c2ccc(CCC(C)(C(=O)NO)S(C)(=O)=O)cc2)c(C)c1 (racemic) [Example 60] | 16 µg/mL | 4 µg/mL | ≧64 mg/L | 4 µg/mL | 
10 | Cc1cc(CCO)ccc1-c1ccc(CCC(C)(C(=O)NO)S(C)(=O)=O)cc1 (stereo not drawn) [Example 156] | 8 µg/mL | 16 µg/mL | 16 µg/mL | 8 µg/mL | 
11 | Cc1cc(-c2ccc(CCC(C)(C(=O)NO)S(C)(=O)=O)cc2)ccc1CCO (stereo not drawn) [Example 152] | 16 µg/mL | 4 µg/mL | ≧64 mg/L | 2 µg/mL | 
12 | Cc1csc(-c2ccc(CCC(C)(C(=O)NO)S(C)(=O)=O)cc2)c1 (stereo not drawn) [Example 46] | 4 µg/mL | 2 µg/mL | ≧64 mg/L | 2 µg/mL | 
13 | CS(=O)(=O)C(CCc1ccc(-c2ccc(C#N)cc2)cc1)C(=O)NO (stereo not drawn) [Example 28] | ≧64 mg/L | 32 µg/mL | ≧64 mg/L | 2 µg/mL | 
14 | CC(CCc1ccc(OCCCC2CCCC2)cc1)(C(=O)NO)S(C)(=O)=O (stereo not drawn) [Example 313, 4-[4-(3-cyclopentylpropoxy)phenyl]-N-hydroxy-2-methyl-2-(methylsulfonyl)butanamide] | 16 µg/mL |  |  |  | MIC ([2]; read-out: EC-1 MIC): 4 µg/mL (≈ 10.1 µM); MIC ([3]; Table 3, read-out: AB-3167 MIC): 2 µg/mL (≈ 5.03 µM); MIC ([4]; Table 3, read-out: PA-7 MIC): 16 µg/mL (≈ 40.2 µM)
15 | Cc1ccc(C)c(-c2ccc(CCC(C)(C(=O)NO)S(C)(=O)=O)cc2)c1 (racemic) [Example 73] | ≧64 mg/L | 16 µg/mL | 4 µg/mL | 32 µg/mL | 
16 | CC(CCc1ccc(OCCC2CCCCC2)cc1)(C(=O)NO)S(C)(=O)=O (stereo not drawn) [Example 314, 4-[4-(2-cyclohexylethoxy)phenyl]-N-hydroxy-2-methyl-2-(methylsulfonyl)butanamide] | ≧64 mg/L |  |  |  | MIC ([2]; read-out: EC-1 MIC): 16 µg/mL (≈ 40.2 µM); MIC ([3]; Table 3, read-out: AB-3167 MIC): 2 µg/mL (≈ 5.03 µM); MIC ([4]; Table 3, read-out: PA-7 MIC): 16 µg/mL (≈ 40.2 µM)
17 | CC(CCc1ccc(OCc2cccc(Cl)c2)cc1)(C(=O)NO)S(C)(=O)=O (stereo not drawn) [Example 250, 4-{4-[(3-chlorobenzyl)oxy]phenyl}-N-hydroxy-2-methyl-2-(methylsulfonyl)butanamide] | 8 µg/mL |  |  |  | MIC ([2]; read-out: EC-1 MIC): 2 µg/mL (≈ 4.86 µM); MIC ([3]; Table 3, read-out: AB-3167 MIC): 4 µg/mL (≈ 9.71 µM); MIC ([4]; Table 3, read-out: PA-7 MIC): 4 µg/mL (≈ 9.71 µM)

Row | SMILES | KP-3700 MIC [1] | EC-1 MIC [2, 5] | AB-3167 MIC [3, 6] | PA-7 MIC [4, 7] | other results
18 | COc1ccc(-c2ccc(CCC(C)(C(=O)NO)S(C)(=O)=O)cc2)c(C)n1 (racemic) [Example 86] | 32 µg/mL | 8 µg/mL | ≧64 mg/L | 4 µg/mL | 
19 | CC(CCc1ccc(OCCCOCc2ccccc2)cc1)(C(=O)NO)S(C)(=O)=O (stereo not drawn) [Example 243, 4-{4-[3-(benzyloxy)propoxy]phenyl}-N-hydroxy-2-methyl-2-(methylsulfonyl)butanamide] | ≧64 mg/L |  |  |  | MIC ([2]; read-out: EC-1 MIC): 32 µg/mL (≈ 73.5 µM); MIC ([3]; Table 3, read-out: AB-3167 MIC): 32 µg/mL (≈ 73.5 µM); MIC ([4]; Table 3, read-out: PA-7 MIC): ≥ 64 µg/mL
20 | CC(CCc1ccc(-c2ccc3c(c2)CCO3)cc1)(C(=O)NO)S(C)(=O)=O (racemic) [Example 74] | 4 µg/mL | 1 µg/mL | 16 µg/mL | 1 µg/mL | 
21 | CC(CCc1ccc(-c2ccccc2)nc1)(C(=O)NO)S(C)(=O)=O (stereo not drawn) [Example 3, N-Hydroxy-2-methyl-2-(methylsulfonyl)-4-(6-phenylpyridin-3-yl)butanamide] | ≧64 mg/L |  |  |  | MIC ([2]; read-out: EC-1: (MIC)): 16 µg/mL (≈ 45.9 µM); MIC [3, 8]: ≥ 64 µg/mL; MIC [4, 9]: 16 µg/mL (≈ 45.9 µM)
22 | CC(CCc1ccc(-c2ccccc2)cn1)(C(=O)NO)S(C)(=O)=O (stereo not drawn) [Example 4, N-Hydroxy-2-methyl-2-(methylsulfonyl)-4-(5-phenylpyridin-2-yl)butanamide] | ≧64 mg/L |  |  |  | MIC ([2]; read-out: EC-1: (MIC)): 16 µg/mL (≈ 45.9 µM); MIC [3, 8]: ≥ 64 µg/mL; MIC [4, 9]: 8 µg/mL (≈ 23 µM)
23 | CC(CCc1ccc(-c2ccc(C[C@H](N)C(=O)O)cc2)cc1)(C(=O)NO)S(C)(=O)=O (stereo partly drawn) [Example 231] | ≧64 mg/L |  |  |  | EC-1 MIC ([2]; Escherichia coli EC-1): 32 µg/mL; AB-3167 MIC ([3]; Acinetobacter baumanii/haemolyticus AB-3167): ≧64 mg/L; PA-7 MIC ([4]; Pseudomonas aeruginosa UI-18 (PA-7)): 16 µg/mL
24 | CC(CCc1ccc(OCc2cccc(OC(F)(F)F)c2)cc1)(C(=O)NO)S(C)(=O)=O (stereo not drawn) [Example 274, N-hydroxy-2-methyl-2-(methylsulfonyl)-4-(4-{[3-(trifluoromethoxy)benzyl]oxy}phenyl)butanamide] | 16 µg/mL |  |  |  | MIC ([2]; read-out: EC-1 MIC): 4 µg/mL (≈ 8.67 µM); MIC ([3]; Table 3, read-out: AB-3167 MIC): 16 µg/mL (≈ 34.7 µM); MIC ([4]; Table 3, read-out: PA-7 MIC): 16 µg/mL (≈ 34.7 µM)
25 | CC(CCc1ccc(-c2ccc(O)cc2F)cc1)(C(=O)NO)S(C)(=O)=O (stereo not drawn) [Example 149] | 8 µg/mL | 2 µg/mL | ≧64 mg/L | 1 µg/mL | 
26 | CC(CCc1ccc(-c2ccc(C#N)nc2)cc1)(C(=O)NO)S(C)(=O)=O (stereo not drawn) [Example 93] | 32 µg/mL | 16 µg/mL | ≧64 mg/L | 4 µg/mL | 
27 | CC(CCc1ccc(OCc2nc3ccccc3s2)cc1)(C(=O)NO)S(C)(=O)=O (stereo not drawn) [Example 277, 4-[4-(1,3-benzothiazol-2-ylmethoxy)phenyl]-N-hydroxy-2-methyl-2-(methylsulfonyl)butanamide] | 16 µg/mL |  |  |  | MIC ([2]; read-out: EC-1 MIC): 4 µg/mL (≈ 9.21 µM); MIC ([3]; Table 3, read-out: AB-3167 MIC): ≥ 64 µg/mL; MIC ([4]; Table 3, read-out: PA-7 MIC): 32 µg/mL (≈ 73.6 µM)
28 | CC(CCc1ccc(-n2cccn2)cc1)(C(=O)NO)S(C)(=O)=O (stereo not drawn) [Example 11, N-Hydroxy-2-methyl-2-(methylsulfonyl)-4-[4-(1H-pyrazol-1-yl)phenyl]butanamide] | ≧64 mg/L |  |  |  | MIC ([2]; read-out: EC-1: (MIC)): ≥ 64 µg/mL; MIC [3, 8]: ≥ 64 µg/mL; MIC [4, 9]: 16 µg/mL (≈ 47.4 µM)
29 | COc1ccc(-c2ccc(CCC(C)(C(=O)NO)S(C)(=O)=O)cc2)cc1F (racemic) [Example 66] | 8 µg/mL | 1 µg/mL | 16 µg/mL | 1 µg/mL | 
30 | COc1ncccc1-c1ccc(CCC(C)(C(=O)NO)S(C)(=O)=O)cc1 (racemic) [Example 76] | ≧64 mg/L | 32 µg/mL | ≧64 mg/L | 16 µg/mL | 
31 | COc1ccc(-c2ccc(CCC(C)(C(=O)NO)S(C)(=O)=O)cc2)cn1 (racemic) [Example 72] | 32 µg/mL | 8 µg/mL | ≧64 mg/L | 4 µg/mL | 
32 | CC(CCc1ccc(-c2ccc(OCCN)cc2)cc1)(C(=O)NO)S(C)(=O)=O (stereo not drawn) [Example 116] | ≧64 mg/L | ≧64 mg/L | ≧64 mg/L | 4 µg/mL | 
33 | COc1cccc(-c2ccc(CCC(C)(C(=O)NO)S(C)(=O)=O)cn2)c1F (stereo not drawn) [Example 134] | 16 µg/mL | 4 µg/mL | ≧64 mg/L | 4 µg/mL | 
